This is an account of results in paper PMC11570842 (The Journal of Biological Chemistry, 2024).

The target of the assay is T1, Ubp2 (Saccharomyces cerevisiae, UniProt Q01476).
T1 sequence (Q01476 1-1272): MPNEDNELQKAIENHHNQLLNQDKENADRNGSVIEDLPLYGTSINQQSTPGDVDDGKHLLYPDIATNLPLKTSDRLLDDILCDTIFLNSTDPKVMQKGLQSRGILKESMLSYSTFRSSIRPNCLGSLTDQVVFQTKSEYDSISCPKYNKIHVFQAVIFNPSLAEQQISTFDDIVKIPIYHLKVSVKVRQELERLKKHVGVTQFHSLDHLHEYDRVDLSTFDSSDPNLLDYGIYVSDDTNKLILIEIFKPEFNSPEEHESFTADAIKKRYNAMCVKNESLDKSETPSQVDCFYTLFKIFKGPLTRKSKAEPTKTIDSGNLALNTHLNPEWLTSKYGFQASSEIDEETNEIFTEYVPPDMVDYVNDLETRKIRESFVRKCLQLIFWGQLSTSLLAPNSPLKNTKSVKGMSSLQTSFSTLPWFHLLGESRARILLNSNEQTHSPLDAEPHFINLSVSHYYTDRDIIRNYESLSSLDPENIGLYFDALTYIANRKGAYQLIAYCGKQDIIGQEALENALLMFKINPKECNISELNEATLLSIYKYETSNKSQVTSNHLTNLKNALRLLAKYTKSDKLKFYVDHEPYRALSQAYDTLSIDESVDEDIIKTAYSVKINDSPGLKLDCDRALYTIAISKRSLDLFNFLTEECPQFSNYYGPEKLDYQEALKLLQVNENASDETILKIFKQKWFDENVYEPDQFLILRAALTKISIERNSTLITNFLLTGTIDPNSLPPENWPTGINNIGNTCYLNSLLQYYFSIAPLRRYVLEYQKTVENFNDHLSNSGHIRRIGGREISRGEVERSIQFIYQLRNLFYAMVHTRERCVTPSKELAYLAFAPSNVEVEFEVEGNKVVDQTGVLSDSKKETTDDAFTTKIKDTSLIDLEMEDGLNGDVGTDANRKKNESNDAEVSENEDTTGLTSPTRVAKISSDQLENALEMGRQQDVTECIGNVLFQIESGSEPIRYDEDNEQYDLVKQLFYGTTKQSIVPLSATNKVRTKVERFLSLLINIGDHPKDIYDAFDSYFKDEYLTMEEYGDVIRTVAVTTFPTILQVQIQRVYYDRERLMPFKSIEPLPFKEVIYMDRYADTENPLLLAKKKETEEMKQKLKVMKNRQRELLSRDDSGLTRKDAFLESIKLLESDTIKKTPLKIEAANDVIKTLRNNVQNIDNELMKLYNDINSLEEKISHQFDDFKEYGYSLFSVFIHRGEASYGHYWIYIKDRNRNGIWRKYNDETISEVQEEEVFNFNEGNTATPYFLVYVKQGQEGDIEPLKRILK
As to conditions: 100 uM PR-619, 5 min preincubation; 0.75 uM Ub-Rho, 50 mM Tris-HCl pH 7.5, 150 mM NaCl, 30 C; activity abrogated.

As to `N#CSc1cc(SC#N)c(N)nc1N` [PR-619], the “fluorogenic Ub-rhodamine 110 cleavage” value is “pan DUB inhibitor PR-619 and the cysteine alkylator iodoacetamide (IAA) abrogated Ubp2 enzymatic activity”.
